Holding throughout (format): functional, cell-based
Test [1] relates to L1210. In words: Concentration required to cause 50% inhibition against murine leukemia L1210 cell line. Conditions: Mus musculus.
Test [2] has as its system L1210. In words: Concentration required to cause 50% inhibition against murine leukemia L1210 cell line; 2-4 ug/mL. Conditions: Mus musculus.
Another test deals with CCRF-CEM. In words: Concentration required to cause 50% inhibition against human CEM cell lines.
Test [3] deals with MRC5CV1. In words: Cytotoxicity of compound was evaluated by incorporation of [methyl-3H]thymidine into MRC5CV1, a control fibroblast cell line, continuous exposure. The settings on record: Homo sapiens.
For test [4], the system named is MRC5CV1. The test can be described thus: Cytotoxicity of compound was evaluated by incorporation of [methyl-3H]thymidine into MRC5CV1, a control fibroblast cell line, for 1 hr exposure. The settings on record: Homo sapiens, MRC5CV1, 1 h.
Test [5] concerns T-24. In words: Cytotoxicity of compound was evaluated by incorporation of [methyl-3H]thymidine into T24, a bladder carcinoma cell line, continuous exposure. Conditions: Homo sapiens.
Test [6] concerns T-24. The test can be described thus: Cytotoxicity of compound was evaluated by incorporation of [methyl-3H]thymidine into T24, a bladder carcinoma cell line, for 1 hr exposure. The settings on record: Homo sapiens, T-24, 1 h.

These results are taken from ChEMBL document CHEMBL1124500, “New cyclic peptides with cytotoxic activity from the ascidian Lissoclinum patella” (J Med Chem, 1989).

The term IC50 denotes the point on the concentration scale where inhibition reaches its midpoint. A lower IC50 goes with greater potency.

Converted amounts (≈) assume the structure as drawn.

In the test on L1210 [1], `CC(C)[C@@H]1NC(=O)[C@H]2N=C(O[C@@H]2C)[C@@H]2CCCN2C(=O)[C@H](Cc2ccccc2)NC(=O)c2csc(n2)[C@H](Cc2ccccc2)NC(=O)[C@H]2CSC1=N2` registered an IC50 of 0.8 mg/L (≈ 1.08 µM).

Turning to `CC[C@@H](C)[C@H]1NC(=O)c2csc(n2)[C@H](C(C)C)NC(=O)[C@H]2N=C(O[C@@H]2C)[C@@H]2CCCN2C(=O)[C@H](Cc2ccccc2)NC(=O)c2csc1n2` [LISSOCLINAMIDE 1], the concentration for half-maximal inhibition (IC50) with L1210 [1] is > 10 mg/L.

Regarding `CC[C@@H](C)[C@H]1NC(=O)[C@H]2N=C(O[C@@H]2C)[C@@H]2CCCN2C(=O)[C@H](Cc2ccccc2)NC(=O)c2csc(n2)[C@@H](C)NC(=O)C2CSC1=N2` [LISSOCLINAMIDE 2], in the test on L1210 [1], the IC50 is > 10 mg/L.

In the case of `CC[C@@H](C)[C@H]1NC(=O)[C@H]2N=C(O[C@@H]2C)[C@@H]2CCCN2C(=O)[C@H](Cc2ccccc2)NC(=O)c2csc(n2)[C@H](C)NC(=O)C2CSC1=N2` [LISSOCLINAMIDE 3], the IC50 in the test on L1210 [1] is > 10 mg/L.

The molecule `CC[C@H](C)[C@@H]1NC(=O)c2csc(n2)[C@@H](C(C)C)NC(=O)[C@H]2N=C(O[C@@H]2C)[C@H]([C@@H](C)CC)NC(=O)c2csc(n2)[C@@H](C(C)C)NC(=O)[C@@H]2COC1=N2` [PATELLAMIDE A] displayed an IC50 in the test on L1210 [2] of 2 mg/L (≈ 2.69 µM).

With `CC[C@H](C)[C@@H]1NC(=O)c2csc(n2)[C@@H](C)NC(=O)[C@H]2N=C(O[C@@H]2C)[C@H](CC(C)C)NC(=O)c2csc(n2)[C@@H](Cc2ccccc2)NC(=O)[C@H]2N=C1O[C@@H]2C` [PATELLAMIDE B], in the test on L1210 [2], the IC50 was 2 mg/L (≈ 2.57 µM).

As to `CC[C@H](C)[C@@H]1NC(=O)c2csc(n2)[C@@H](C)NC(=O)[C@H]2N=C(O[C@@H]2C)[C@H](C(C)C)NC(=O)c2csc(n2)[C@@H](Cc2ccccc2)NC(=O)[C@H]2N=C1O[C@@H]2C` [PATELLAMIDE C], half-maximal inhibition with L1210 [2] (IC50) required 2 mg/L (≈ 2.62 µM).

For the molecule `CC(C)C[C@H]1NC(=O)[C@H]2N=C(O[C@@H]2C)[C@H]2CSSC[C@@H](NC(=O)c3csc1n3)C1=N[C@H](C(=O)N[C@H](CC(C)C)c3nc(cs3)C(=O)N2)[C@@H](C)O1` [ULITHIACYCLAMIDE], the IC50 with CCRF-CEM is 0.01 mg/L (≈ 0.0131 µM); in the test with L1210 [1], 0.35 mg/L (≈ 0.459 µM); with MRC5CV1 [3], 0.04 mg/L (≈ 0.0524 µM); in the test on MRC5CV1 [4], 0.22 mg/L (≈ 0.288 µM); in the test with T-24 [5] it was 0.1 mg/L (≈ 0.131 µM); in the test with T-24 [6], 0.15 mg/L (≈ 0.197 µM).
